In ChEMBL document CHEMBL2331549, “Cyclopropyl- and methyl-containing inhibitors of neuronal nitric oxide synthase” (Bioorg Med Chem, 2013):

Legend:
[1] = Selectivity ratio of Ki for rat nNOS to Ki for mouse iNOS
[2] = target: Nitric oxide synthase 1 (Rattus norvegicus, UniProt P29476); experiment: Inhibition of rat nNOS expressed in Escherichia coli using L-arginine as substrate assessed as formation of nitric oxide by hemoglobin capture assay
[3] = Selectivity ratio of Ki for rat nNOS to Ki for bovine eNOS
[4] = target: T1, Nitric oxide synthase 3 (Bos taurus, UniProt P29473); experiment: Inhibition of bovine eNOS expressed in Escherichia coli using L-arginine as substrate assessed as formation of nitric oxide by hemoglobin capture assay
T1 sequence (P29473 whole entry): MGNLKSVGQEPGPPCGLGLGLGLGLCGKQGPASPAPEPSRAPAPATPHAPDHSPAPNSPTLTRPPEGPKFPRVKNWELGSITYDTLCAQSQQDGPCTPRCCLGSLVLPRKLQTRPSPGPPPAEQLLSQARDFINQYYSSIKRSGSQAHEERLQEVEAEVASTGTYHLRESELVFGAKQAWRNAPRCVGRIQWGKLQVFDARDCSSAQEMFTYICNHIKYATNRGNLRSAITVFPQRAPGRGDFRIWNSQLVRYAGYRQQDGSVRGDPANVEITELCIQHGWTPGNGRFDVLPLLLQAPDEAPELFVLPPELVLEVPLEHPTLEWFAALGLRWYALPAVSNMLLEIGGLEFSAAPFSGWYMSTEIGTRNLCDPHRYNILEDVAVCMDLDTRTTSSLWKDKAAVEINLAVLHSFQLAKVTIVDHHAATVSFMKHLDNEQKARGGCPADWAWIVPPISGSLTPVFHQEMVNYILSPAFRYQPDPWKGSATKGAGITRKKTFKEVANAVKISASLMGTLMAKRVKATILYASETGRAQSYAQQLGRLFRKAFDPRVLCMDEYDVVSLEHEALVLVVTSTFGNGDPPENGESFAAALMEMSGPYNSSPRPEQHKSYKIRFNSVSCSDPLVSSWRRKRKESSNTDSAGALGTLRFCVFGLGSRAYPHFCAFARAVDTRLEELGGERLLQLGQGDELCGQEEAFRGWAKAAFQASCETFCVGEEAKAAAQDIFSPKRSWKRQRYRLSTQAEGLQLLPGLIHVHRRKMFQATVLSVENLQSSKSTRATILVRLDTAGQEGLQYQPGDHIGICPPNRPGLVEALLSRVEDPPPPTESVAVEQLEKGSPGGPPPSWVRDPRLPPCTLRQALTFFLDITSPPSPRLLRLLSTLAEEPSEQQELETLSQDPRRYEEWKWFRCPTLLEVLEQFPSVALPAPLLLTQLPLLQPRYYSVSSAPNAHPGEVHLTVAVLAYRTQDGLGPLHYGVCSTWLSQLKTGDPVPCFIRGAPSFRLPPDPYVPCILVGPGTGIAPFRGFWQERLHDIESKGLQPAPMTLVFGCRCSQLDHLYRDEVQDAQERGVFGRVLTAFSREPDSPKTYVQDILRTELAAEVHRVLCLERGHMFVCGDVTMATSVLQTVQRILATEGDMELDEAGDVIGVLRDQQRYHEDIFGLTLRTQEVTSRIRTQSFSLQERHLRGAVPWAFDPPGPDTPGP

[5] = target: T2, Nitric oxide synthase, inducible (Mus musculus, UniProt P29477); experiment: Inhibition of mouse iNOS expressed in Escherichia coli using L-arginine as substrate assessed as formation of nitric oxide by hemoglobin capture assay
T2 sequence (P29477 whole entry): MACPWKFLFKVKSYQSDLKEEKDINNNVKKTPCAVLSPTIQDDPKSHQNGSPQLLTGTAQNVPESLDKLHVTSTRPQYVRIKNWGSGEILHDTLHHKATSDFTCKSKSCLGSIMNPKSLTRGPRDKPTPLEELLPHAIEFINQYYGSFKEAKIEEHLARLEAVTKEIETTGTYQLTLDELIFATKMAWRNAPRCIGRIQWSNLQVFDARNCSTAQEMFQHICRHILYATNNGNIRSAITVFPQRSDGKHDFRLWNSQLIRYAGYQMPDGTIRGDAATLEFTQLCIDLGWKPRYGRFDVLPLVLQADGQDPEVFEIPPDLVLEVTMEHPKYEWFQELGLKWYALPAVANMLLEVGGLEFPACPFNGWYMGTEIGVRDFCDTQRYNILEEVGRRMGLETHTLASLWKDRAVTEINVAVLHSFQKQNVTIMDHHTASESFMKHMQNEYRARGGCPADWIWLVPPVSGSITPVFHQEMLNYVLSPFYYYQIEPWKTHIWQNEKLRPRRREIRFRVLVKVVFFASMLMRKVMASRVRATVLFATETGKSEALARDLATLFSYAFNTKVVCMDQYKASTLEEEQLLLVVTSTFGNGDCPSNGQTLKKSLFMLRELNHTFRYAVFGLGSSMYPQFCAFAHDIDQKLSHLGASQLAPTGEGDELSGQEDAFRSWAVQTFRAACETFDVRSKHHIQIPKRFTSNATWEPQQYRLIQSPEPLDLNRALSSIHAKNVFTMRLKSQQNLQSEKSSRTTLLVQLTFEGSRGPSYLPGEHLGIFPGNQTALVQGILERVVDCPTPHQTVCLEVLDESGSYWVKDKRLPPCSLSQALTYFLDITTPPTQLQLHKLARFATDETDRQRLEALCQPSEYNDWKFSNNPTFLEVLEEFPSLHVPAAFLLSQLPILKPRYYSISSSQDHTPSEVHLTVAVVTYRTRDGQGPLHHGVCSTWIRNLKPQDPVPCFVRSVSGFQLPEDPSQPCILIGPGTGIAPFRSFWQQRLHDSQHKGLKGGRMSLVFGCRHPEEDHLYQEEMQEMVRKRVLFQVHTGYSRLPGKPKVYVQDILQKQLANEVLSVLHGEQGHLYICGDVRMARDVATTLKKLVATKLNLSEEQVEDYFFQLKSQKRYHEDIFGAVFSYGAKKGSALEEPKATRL

Nitric oxide synthase 1, sequence (P29476 whole entry): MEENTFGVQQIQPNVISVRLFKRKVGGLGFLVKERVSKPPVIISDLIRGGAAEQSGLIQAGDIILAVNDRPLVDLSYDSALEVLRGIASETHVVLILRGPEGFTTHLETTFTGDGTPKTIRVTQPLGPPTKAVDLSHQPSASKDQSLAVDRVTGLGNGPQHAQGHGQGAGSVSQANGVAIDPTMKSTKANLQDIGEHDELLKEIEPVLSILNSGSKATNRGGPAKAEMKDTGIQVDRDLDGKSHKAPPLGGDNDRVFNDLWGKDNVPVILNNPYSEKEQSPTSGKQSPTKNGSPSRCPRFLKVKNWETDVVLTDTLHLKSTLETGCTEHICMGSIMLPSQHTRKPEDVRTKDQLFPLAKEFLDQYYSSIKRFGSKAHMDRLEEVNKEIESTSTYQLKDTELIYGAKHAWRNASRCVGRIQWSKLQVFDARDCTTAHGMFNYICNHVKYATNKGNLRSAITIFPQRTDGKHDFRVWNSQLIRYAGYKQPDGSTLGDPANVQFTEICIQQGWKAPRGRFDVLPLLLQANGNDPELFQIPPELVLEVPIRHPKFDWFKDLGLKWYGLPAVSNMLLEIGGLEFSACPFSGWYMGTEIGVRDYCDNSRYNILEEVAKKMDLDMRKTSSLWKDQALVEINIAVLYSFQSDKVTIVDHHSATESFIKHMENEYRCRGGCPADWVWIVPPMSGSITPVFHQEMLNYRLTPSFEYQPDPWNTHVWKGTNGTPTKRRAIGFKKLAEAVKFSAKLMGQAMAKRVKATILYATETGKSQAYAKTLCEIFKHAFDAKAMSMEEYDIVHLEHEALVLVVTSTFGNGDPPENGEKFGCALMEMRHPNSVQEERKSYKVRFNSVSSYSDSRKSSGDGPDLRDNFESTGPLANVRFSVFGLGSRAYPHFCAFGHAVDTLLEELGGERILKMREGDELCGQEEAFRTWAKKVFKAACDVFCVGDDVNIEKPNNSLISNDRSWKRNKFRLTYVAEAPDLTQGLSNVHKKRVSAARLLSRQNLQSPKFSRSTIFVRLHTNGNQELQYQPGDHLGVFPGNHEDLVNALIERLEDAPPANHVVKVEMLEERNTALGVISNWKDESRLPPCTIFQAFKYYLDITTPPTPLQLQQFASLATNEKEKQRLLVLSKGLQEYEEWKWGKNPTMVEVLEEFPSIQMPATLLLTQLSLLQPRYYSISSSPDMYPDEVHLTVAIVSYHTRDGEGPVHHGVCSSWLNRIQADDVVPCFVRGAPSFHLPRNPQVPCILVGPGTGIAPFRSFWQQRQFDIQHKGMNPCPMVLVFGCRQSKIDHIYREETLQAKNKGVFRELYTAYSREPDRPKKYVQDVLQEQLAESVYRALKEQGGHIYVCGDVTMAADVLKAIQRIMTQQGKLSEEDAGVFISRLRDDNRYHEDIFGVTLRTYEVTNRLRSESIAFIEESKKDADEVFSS

Structure (SMILES) | Ratio Ki [1] | Ki [2] | Ratio Ki [3] | Ki [4] | Ki [5]
Cc1cc(N)nc(C[C@@H]2CNC[C@@H]2OCCNC2CC2c2cccc(F)c2)c1 (mixture of isomers) | 94 | 0.17 µM | 300 | 51 µM | 16 µM
Cc1cc(N)nc(C[C@@H]2CNC[C@@H]2OCCN[C@H](C)Cc2cccc(F)c2)c1 | 110 | 0.07 µM | 570 | 40 µM | 7.6 µM
Cc1cc(N)nc(C[C@@H]2CNC[C@@H]2OCCNC2CC2c2cccc(Cl)c2)c1 (mixture of isomers) | 12 | – | 370 | – | –
Cc1cc(N)nc(C[C@@H]2CNC[C@@H]2OCCNC(C)Cc2cccc(F)c2)c1 (mixture of isomers) | 12 | – | 370 | – | –
